Molecules are shown by their SMILES.

Data on 39 compounds can be found in patent publication US7998978B2 (Pfizer Inc., priority 2006, dated 2011).

For the experiment, the target named is T1, JNK1α1 (Homo sapiens, UniProt P45983).
T1 construct: catalytic domain containing amino acids 1-364 and N-terminal hexahistidine tag; hexahistidine (His6) (N); made in house; host or cells: E. coli BL21 (DE3)
Put plainly: Coupled spectrophotometric (PK/LDH) JNK1α1 assay: % inhibition and Ki determination. As to conditions: for inhibition at 10 µM / inhibition at 1 µM: read-out: % Inhibition JNK-1; for Ki: JNK-1. The format is biochemical. Summed up:
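Initial rates were taken from the absorbance decrease at 340 nm at 30° C. Ki was fitted with a tight-binding model over 11 concentrations (top 100 μM); single-point inhibition was tested at 1 or 10 μM.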

T1 sequence (P45983 1-364): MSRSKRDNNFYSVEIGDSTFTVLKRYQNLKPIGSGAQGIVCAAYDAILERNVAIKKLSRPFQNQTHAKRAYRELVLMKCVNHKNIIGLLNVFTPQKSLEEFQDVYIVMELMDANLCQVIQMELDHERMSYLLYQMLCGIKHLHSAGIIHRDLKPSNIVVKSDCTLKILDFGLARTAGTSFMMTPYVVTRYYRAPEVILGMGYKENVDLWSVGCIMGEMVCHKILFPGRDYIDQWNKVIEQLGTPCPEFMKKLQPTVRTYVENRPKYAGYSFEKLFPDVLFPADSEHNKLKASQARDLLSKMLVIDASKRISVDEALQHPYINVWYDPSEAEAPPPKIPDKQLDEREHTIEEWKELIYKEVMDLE

For `c1cc(CNc2cc3cc(-c4cn[nH]c4)ccc3cn2)[nH]n1` [Example 229, 6-(1H-pyrazol-4-yl)-N-(1H-pyrazol-5-ylmethyl)isoquinolin-3-amine], the inhibition at 10 µM was 17%. Still for that read-out and setting: then `Cn1ccnc1-c1ccc(CNc2cc3cc(-c4cn[nH]c4)ccc3cn2)cc1` [Example 230, N-[4-(1-methyl-1H-imidazol-2-yl)benzyl]-6-(1H-pyrazol-4-yl)isoquinolin-3-amine], with 43%; and `COc1ccc(CNc2cc3cc(-c4cn[nH]c4)ccc3cn2)cn1` [Example 231, N-[(6-methoxypyridin-3-yl)methyl]-6-(1H-pyrazol-4-yl)isoquinolin-3-amine], with 43%; and `COc1ccccc1-c1ncc(CNc2cc3cc(-c4cn[nH]c4)ccc3cn2)cn1` [Example 232, N-{[2-(2-methoxyphenyl)pyrimidin-5-yl]methyl}-6-(1H-pyrazol-4-yl)isoquinolin-3-amine], with 46%. `c1ccc(Cn2cccn2)c(CNc2cc3cc(-c4cn[nH]c4)ccc3cn2)c1` [Example 233, 6-(1H-pyrazol-4-yl)-N-[2-(1H-pyrazol-1-ylmethyl)benzyl]isoquinolin-3-amine]: the inhibition at 10 µM amounted to 46%.

Take `CC(C)Oc1ccc(CNc2cc3cc(-c4cn[nH]c4)ccc3cn2)cc1CO` [Example 234, [2-isopropoxy-5-({[6-(1H-pyrazol-4-yl)isoquinolin-3-yl]amino}methyl)phenyl]methanol]: the inhibition at 10 µM is 19%. Still for that read-out and setting: as for `c1ncc(-c2ccc(CNc3cc4cc(-c5cn[nH]c5)ccc4cn3)cc2)cn1` [Example 235, 6-(1H-pyrazol-4-yl)-N-(4-pyrimidin-5-ylbenzyl)isoquinolin-3-amine], the figure is 15%; as for `COc1ccc(F)c(CNc2cc3cc(-c4cn[nH]c4)ccc3cn2)c1` [Example 236, N-(2-fluoro-5-methoxybenzyl)-6-(1H-pyrazol-4-yl)isoquinolin-3-amine], 49%. Turning to `CS(=O)(=O)Nc1ccc(CNc2cc3cc(-c4cn[nH]c4)ccc3cn2)cc1` [Example 237, N-[4-({[6-(1H-pyrazol-4-yl)isoquinolin-3-yl]amino}methyl)phenyl]methanesulfon-amide], the inhibition at 10 µM came out at 41%. Same read-out and setting: as for `N#Cc1cccc(CNc2cc3cc(-c4cn[nH]c4)ccc3cn2)c1` [Example 238, 3-({[6-(1H-pyrazol-4-yl)isoquinolin-3-yl]amino}methyl)benzonitrile], the figure is 46%.

Regarding `O[C@H]1CC[C@H](Nc2ncc3cccc(OC4CCC(F)(F)CC4)c3n2)CC1` [Example 239, trans-4-({8-[(4,4-difluorocyclohexyl)oxy]quinazolin-2-yl}amino)cyclohexanol], the Ki was found to be 67 nM.

In the case of `O[C@H]1CC[C@H](Nc2ncc3cccc(O[C@H]4CCCN(Cc5ccccn5)C4)c3n2)CC1` [Example 240, trans-4-[(8-{[1-(pyridin-2-ylmethyl)piperidin-3-yl]oxy}quinazolin-2-yl)amino]cyclohexanol], the Ki amounted to 79 nM.

Take `COC(C)(C)CCOc1cccc2cnc(N[C@H]3CC[C@H](O)CC3)nc12` [Example 241, trans-4-{[8-(3-methoxy-3-methylbutoxy)quinazolin-2-yl]amino}cyclohexanol]: affinity was put at a Ki of 98 nM. Same read-out and setting: then `O[C@H]1CC[C@H](Nc2ncc3cccc(OC4CCC4)c3n2)CC1` [Example 242, trans-4-{[8-(cyclobutyloxy)quinazolin-2-yl]amino}cyclohexanol], with 112 nM; and `O[C@H]1CC[C@H](Nc2ncc3cccc(OCC4CCCCO4)c3n2)CC1` (stereo partly drawn) [Example 243, trans-4-{[8-(tetrahydro-2H-pyran-2-ylmethoxy)quinazolin-2-yl]amino}cyclohexanol], with 233 nM; and `O[C@H]1CC[C@H](Nc2ncc3cccc(OCC(F)(F)F)c3n2)CC1` [Example 244, trans-4-{[8-(2,2,2-trifluoroethoxy)quinazolin-2-yl]amino}cyclohexanol], with 234 nM. The compound `O[C@H]1CC[C@H](Nc2ncc3cccc(OCCc4cn[nH]c4)c3n2)CC1` [Example 245, trans-4-({8-[2-(1H-pyrazol-4-yl)ethoxy]quinazolin-2-yl}amino)cyclohexanol] yielded a Ki of 239 nM.

In turn, `CCC1(COc2cccc3cnc(N[C@H]4CC[C@H](O)CC4)nc23)COC1` [Example 246, trans-4-({8-[(3-ethyloxetan-3-yl)methoxy]quinazolin-2-yl}amino)cyclohexanol] registered a Ki of 257 nM. On the same count and under the same terms, as for `O[C@H]1CC[C@H](Nc2ncc3cccc(OC4CCN(c5ccncn5)CC4)c3n2)CC1` [Example 247, trans-4-({8-[(1-pyrimidin-4-ylpiperidin-4-yl)oxy]quinazolin-2-yl}amino)cyclohexanol], the figure is 274 nM; as for `O[C@H]1CC[C@H](Nc2ncc3cccc(OCc4ccccn4)c3n2)CC1` [Example 248, trans-4-{[8-(pyridin-2-ylmethoxy)quinazolin-2-yl]amino}cyclohexanol], 303 nM. In the case of `O[C@H]1CC[C@H](Nc2ncc3cccc(OCC4CCOC4)c3n2)CC1` (stereo partly drawn) [Example 249, trans-4-{[8-(tetrahydrofuran-3-ylmethoxy)quinazolin-2-yl]amino}cyclohexanol], the Ki was 323 nM. Regarding `O[C@H]1CC[C@H](Nc2ncc3cccc(OCCN4CCOCC4)c3n2)CC1` [Example 250, trans-4-{[8-(2-morpholin-4-ylethoxy)quinazolin-2-yl]amino}cyclohexanol], the inhibition at 1 µM came to 24%. Still for that read-out and setting: then `CN(C)C(C)(C)COc1cccc2cnc(N[C@H]3CC[C@H](O)CC3)nc12` [Example 251, trans-4-({8-[2-(dimethylamino)-2-methylpropoxy]quinazolin-2-yl}amino)cyclohexanol], with 19%.

For the compound `CN1CCCCC1COc1cccc2cnc(N[C@H]3CC[C@H](O)CC3)nc12` (stereo partly drawn) [Example 252, trans-4-({8-[(1-methylpiperidin-2-yl)methoxy]quinazolin-2-yl}amino)cyclohexanol], the inhibition at 10 µM was found to be 59%. The same measure, in the same setting: as for `CN1CCCC(COc2cccc3cnc(N[C@H]4CC[C@H](O)CC4)nc23)C1` (stereo partly drawn) [Example 253, trans-4-({8-[(1-methylpiperidin-3-yl)methoxy]quinazolin-2-yl}amino)cyclohexanol], the figure is 38%. As to `CN1CCC(Oc2cccc3cnc(N[C@H]4CC[C@H](O)CC4)nc23)CC1` [Example 254, trans-4-({8-[(1-methylpiperidin-4-yl)oxy]quinazolin-2-yl}amino)cyclohexanol], the inhibition at 1 µM was 17%.

Consider `O[C@H]1CC[C@H](Nc2ncc3cccc(OCCN4CCCCC4)c3n2)CC1` [Example 255, trans-4-{[8-(2-piperidin-1-ylethoxy)quinazolin-2-yl]amino}cyclohexanol], for which the inhibition at 1 µM is 12%. Still for that read-out and setting: as for `COCCOc1cccc2cnc(N[C@H]3CC[C@H](O)CC3)nc12` [Example 256, trans-4-{[8-(2-methoxyethoxy)quinazolin-2-yl]amino}cyclohexanol], the figure is 29%. For `CN1CCC[C@H]1COc1cccc2cnc(N[C@H]3CC[C@H](O)CC3)nc12` [Example 257, trans-4-[(8-{[(2S)-1-methylpyrrolidin-2-yl]methoxy}quinazolin-2-yl)amino]cyclohexanol], the inhibition at 10 µM was 62%.

Consider `CC(C)(C)OCCOc1cccc2cnc(N[C@H]3CC[C@H](O)CC3)nc12` [Example 258, trans-4-{[8-(2-tert-butoxyethoxy)quinazolin-2-yl]amino}cyclohexanol], for which the inhibition at 1 µM was determined as 30%. With `CCN1CCC(Oc2cccc3cnc(N[C@H]4CC[C@H](O)CC4)nc23)C1` (stereo partly drawn) [Example 259, trans-4-({8-[(1-ethylpyrrolidin-3-yl)oxy]quinazolin-2-yl}amino)cyclohexanol], the inhibition at 10 µM stood at 65%. For the compound `O=C1NCCN1CCOc1cccc2cnc(N[C@H]3CC[C@H](O)CC3)nc12` [Example 260, 1-[2-({2-[(trans-4-hydroxycyclohexyl)amino]quinazolin-8-yl}oxy)ethyl]imidazolidin-2-one], the inhibition at 1 µM came to 34%.

For `CCN(CC)CCOc1cccc2cnc(N[C@H]3CC[C@H](O)CC3)nc12` [Example 261, trans-4-({8-[2-(diethylamino)ethoxy]quinazolin-2-yl}amino)cyclohexanol], the inhibition at 10 µM came out at 42%. On the same count and under the same terms, then `CN1CCC(Oc2cccc3cnc(N[C@H]4CC[C@H](O)CC4)nc23)C1` (stereo partly drawn) [Example 262, trans-4-({8-[(1-methylpyrrolidin-3-yl)oxy]quinazolin-2-yl}amino)cyclohexanol], with 61%. As for `O[C@H]1CC[C@H](Nc2ncc3cccc(OC[C@@H]4CCCN5CCCC[C@H]45)c3n2)CC1` [Example 263, trans-4-({8-[(1R, 9aR)-octahydro-2H-quinolizin-1-ylmethoxy]quinazolin-2-yl}amino)cyctohexanol], the inhibition at 10 µM was 31%.

With `CN1CCN(C)C(COc2cccc3cnc(N[C@H]4CC[C@H](O)CC4)nc23)C1` (stereo partly drawn) [Example 264, trans-4-({8-[(1,4-dimethylpiperazin-2-yl)methoxy]quinazolin-2-yl}amino)cyclohexanol], the inhibition at 10 µM was determined as 46%. Consider `COc1ccc(COc2cccc3cnc(N[C@H]4CC[C@H](O)CC4)nc23)cc1OC` [Example 265, trans-4-({8-[(3,4-dimethoxybenzyl)oxy]quinazolin-2-yl}amino)cyclohexanol], for which the inhibition at 1 µM stood at 47%. As for `CC(COc1cccc2cnc(N[C@H]3CC[C@H](O)CC3)nc12)N(C)C` (stereo partly drawn) [Example 266, trans-4-({8-[2-(dimethylamino)propoxy]quinazolin-2-yl}amino)cyclohexanol], the inhibition at 1 µM is 14%.

For the compound `CC1CN(CCOc2cccc3cnc(N[C@H]4CC[C@H](O)CC4)nc23)CC(C)O1` (stereo partly drawn) [Example 267, trans-4-({8-[2-(2,6-dimethylmorpholin-4-yl)ethoxy]quinazolin-2-yl}amino)cyclohexanol], the inhibition at 1 µM turned out to be 18%.
